Source: patent US7829114B2, “Capsules containing aqueous fill compositions stabilized with derivatized cyclodextrin” (CyDex Pharmaceuticals, Inc., priority 2002, dated 2010)
Counter-ions that a name gives are not always drawn.

Assays:
[1] = Clarity / appearance of fill composition; format: physicochemical; settings: normal dose of drug in 1 gram
Text: (§1) Agitation continued until all the SAE-CD dissolved.
Clarity of the fill compositions herein can be determined by visual inspection; however, other known methods for determining the clarity of a fill composition can be performed. Exemplary other methods include transmittance spectrophotometry at a wavelength of 800 nm.

[2] = Shell stability toward aqueous fill composition, statements on soft gelatin capsules; format: physicochemical; settings: for stability provided to capsules: about ≧60% wt.
[3] = Water activity measurement; format: physicochemical; settings: for Water Activity (approximate values): about 20-25° C.
Protocol: Without being held bound to a particular mechanism, it is believed that the increasing the concentration of derivatized cyclodextrin present in the aqueous fill composition results in reduced water activity for the fill composition. The table below provides a summary of water activity versus concentration of cyclodextrin derivatives or some shell-stabilizing materials in water at about 20-25° C., or ambient temperature.
The values detailed above are approximate and can vary from instrument to instrument. These values were determined according to the procedure described herein on a water activity meter described herein. The numbers can also vary within the standard deviation of a particular instrument. It is also possible for the numbers to vary according to the accuracy and reproducibility of the instrument used as well as the method for calibrating the instrument with solution standards of known water activity.
Water activity was measured by placing a sample solution in a small, sealed container and determining the equilibrium humidity and temperature in the container. Instruments such as the HygroLab 3 from Rotronic Instrument Corp. , Huntington, N.Y. were used to measure the water activity. The humidity is determined using a thin film capacitive sensor in the headspace of the container. The temperature is determined using a Pt RTD 100 sensor. From these measurements the activity of water (Aw) is calculated by the instrument. The instrument has an accuracy of about ±0.015 Aw and a repeatability of about ±0.005 Aw. Carefully prepared salt-containing stock solutions of known concentration and water activity were used to calibrate the instrument prior to use.

[4] = Shell stability on exposure to aqueous fill composition (half-shell integrity test, H.S.I.T.); format: physicochemical; settings: HFB
Text: as §1

[5] = as above; settings: LFB
Protocol: A study was conducted to determine whether or not complexation of a drug to the SAE-CD alters the ability of the SAE-CD to stabilize the capsule shell against dissolution, erosion, swelling or degradation caused by water in the fill composition enclosed within the capsule shell. Banner's hydrophilic, HFB, and lipophilic, LFB, air fill size 35 oval gelatin capsules were used in this study, which was performed as described below. […] The SAE-CD was slowly added to the water while it was stirring and on a hot plate. Agitation continued until all the SAE-CD dissolved. The SAE-CD was divided by weighing in equal amounts into nine vials (one for each drug). […] The amount of drug added produced a composition that contained a normal dose of drug in 1 gram. The vials were agitated and heated until a solution was obtained or the active was uniformly suspended. […]
Method A: Half-Shell integrity Test (H.S.I.T.)
In a closed container, a portion of a capsule shell is exposed to an aqueous fill composition comprising a known amount of derivatized cyclodextrin, water and optionally one or more other excipients. Observation of changes, or lack thereof, on the exposed portion's size, appearance, shape, dissolution, erosion, degradation, hardness, and/or translucence are recorded periodically over time. A rating scale is used to quantify the overall performance of the capsule portion during the test.

[6] = as above; format: physicochemical; settings: HFC
Protocol: (§2) The same tests were performed on gelatin capsules obtained from CARDINAL HEALTH.
It has been discovered that PEG has a beneficial effect upon the shell-stabilizing property of an aqueous fill composition comprising SAE-CD. FIG. 6a depicts a ternary graph correlating the concentration of SAE-CD, water and PEG in a fill composition to the H.S.I.T. rating of a soft shell capsule exposed to the fill composition. Aqueous fill solutions comprising differing amounts of PEG, SAE-CD and water were prepared. The stability tests were conducted as described below. The HFC soft gelatin capsules described herein were used. For a composition comprising 40% wt. SBE-CD, 40% wt. water and 20% wt. PEG, the shell was stable for greater than 5 days. For a composition comprising 35% wt. SBE-CD, 35% wt. water and 30% wt. PEG, the shell was stable for greater than 5 days. For a composition comprising 18% wt. SBE-CD, 42% wt. water and 40% wt. PEG, the shell was stable for greater than 5 days. Under each of the conditions tested, the control sample excluded SAE-CD, i.e., containing only water and PEG at the indicated concentration, and failed within 24 hours. About the same results were obtained for the HFB (FIG. 6b), LFB (FIG. 7a) and LFC (FIG. 7b) soft gelatin capsules. Increasing the SAE-CD concentration to values higher than those indicated further increases the shelf-life of the shell or provides an HSIT rating of at least 4. Stabilized aqueous fill composition-containing capsule formulations can be achieved with each capsule if the following fill compositions are used.

[7] = as above; format: physicochemical; settings: LFC
Protocol: as §2

[8] = 40% wt. cyclodextrin derivative in water
[9] = 50% wt. cyclodextrin derivative in water
[10] = 60% wt. cyclodextrin derivative in water
[11] = 70% wt. cyclodextrin derivative in water

Question: With `CN[C@H]1CC[C@@H](c2ccc(Cl)c(Cl)c2)c2ccccc21` [Sertraline HCl] as the molecule, how does the Fill composition appearance ([1]; 60% w/w SAE-CD) read?
Answer: The Fill composition appearance was “solution”.

Question: What about the Fill composition appearance ([1]; 70% w/w SAE-CD) of the same molecule?
Answer: Its Fill composition appearance is “clear solution”.

Question: Which results are given for `CC(C)(C(=O)O)c1ccc(C(O)CCCN2CCC(C(O)(c3ccccc3)c3ccccc3)CC2)cc1` (centres unmarked) [Fexofenadine HCl]?
Answer: Fill composition appearance ([1]; 60% w/w SAE-CD): solution; Fill composition appearance ([1]; 70% w/w SAE-CD): clear solution

Question: What does the source list for `C[C@]12CC[C@H]3[C@@H](CCC4=CC(=O)CC[C@@]43C)[C@@H]1CC[C@@H]2O` [Testosterone]?
Answer: Fill composition appearance ([1]; 60% w/w SAE-CD): clear solution; Fill composition appearance ([1]; 70% w/w SAE-CD): clear solution

Question: With `C[C@]12CCC(=O)C=C1CC[C@@H]1[C@@H]2[C@@H](O)C[C@@]2(C)[C@H]1CC[C@]2(O)C(=O)CO` [Hydrocortisone] as the molecule, how does the Fill composition appearance ([1]; 60% w/w SAE-CD) read?
Answer: The Fill composition appearance was “clear solution”.

Question: What about the Fill composition appearance ([1]; 70% w/w SAE-CD) of the same molecule?
Answer: Its Fill composition appearance is “clear solution”.

Question: What does the source list for hydroxypropyl cyclodextrin [HP-CD]?
Answer: shelf-life of soft gelatin capsules ([2]; 60% wt. or more based upon total weight of water and HP-CD): at least one week; stability provided to capsules ([2]; LFB and LFC soft gelatin capsules as printed, FIG. 2): at least one week stability; stability provided to capsules ([2]; LFB and LFC soft gelatin capsules, FIG. 1): at least a one-week stability; Water Activity (approximate values) ([3]; 10 % w/w in water): ~0.99; Water Activity (approximate values) ([3]; 20 % w/w in water): ~0.99; Water Activity (approximate values) ([3]; 30 % w/w in water): ~0.98; Water Activity (approximate values) ([3]; 40 % w/w in water): ~0.98; Water Activity (approximate values) ([3]; 50 % w/w in water): ~0.97; Water Activity (approximate values) ([3]; 60 % w/w in water): ~0.94; Water Activity (approximate values) ([3]; 70 % w/w in water): ~0.93; Increase in shell size [4, 8]: >3 × × original; Observations [4, 8]: Deformed; Time for failure [4, 8]: 2 days; Increase in shell size [4, 9]: 2 × × original; Observations [4, 9]: shape intact; Time for failure [4, 9]: 4 days; Increase in shell size [4, 10]: 2 × × original; Observations [4, 10]: Shape intact; Time for failure [4, 10]: 7 days; Increase in shell size [4, 11]: 1.5 × × original; Observations [4, 11]: Shape intact; Time for failure [4, 11]: 14 days; Increase in shell size [5, 8]: >3 × × original; Observations [5, 8]: Deformed; Time for failure [5, 8]: 2 days; Increase in shell size [5, 9]: 2 × × original; Observations [5, 9]: shape intact; Time for failure [5, 9]: 4 days; Increase in shell size [5, 10]: 2 × × original; Observations [5, 10]: Shape intact; Time for failure [5, 10]: 7 days; Increase in shell size [5, 11]: 1.5 × × original; Observations [5, 11]: Shape intact; Time for failure [5, 11]: 14 days; Increase in shell size [6, 8]: >3 × × original; Observations [6, 8]: Deformed; Time for failure [6, 8]: 2 days; Increase in shell size [6, 9]: 2 × × original; Observations [6, 9]: shape intact; Time for failure [6, 9]: 4 days; Increase in shell size [6, 10]: 2 × × original; Observations [6, 10]: Slight deformity; Time for failure [6, 10]: 7 days; Increase in shell size [6, 11]: 1.5 × × original; Observations [6, 11]: Shape intact; Time for failure [6, 11]: 14 days; Increase in shell size [7, 8]: >3 × × original; Observations [7, 8]: Deformed; Time for failure [7, 8]: 2 days; Increase in shell size [7, 9]: 2 × × original; Observations [7, 9]: Shape intact; Time for failure [7, 9]: 4 days; Increase in shell size [7, 10]: 2 × × original; Observations [7, 10]: Slight deformity; Time for failure [7, 10]: 7 days; Increase in shell size [7, 11]: 1.5 × × original; Observations [7, 11]: Shape intact; Time for failure [7, 11]: 14 days

Question: What does the source list for “Dimethylcyclodextrin [DMCD, reference compound]”?
Answer: effect on stability of the shell ([2]; about 42% wt., maximum achievable concentration, FIG. 2): only slightly increased the stability of the shell; ability to stabilize soft gelatin capsules from water in the fill composition ([2]; at saturation concentration in water, FIG. 4): unable to stabilize; water activity ([3]; 43% wt. in water, the approximate saturation concentration): approximately 0.996

Question: With `C(=C\c1ccccc1)/CN1CCN(C(c2ccccc2)c2ccccc2)CC1` [Cinnarizine] as the molecule, how does the Fill composition appearance ([1]; 60% w/w SAE-CD) read?
Answer: Its Fill composition appearance is “suspension”.

Question: And the Fill composition appearance ([1]; 70% w/w SAE-CD)?
Answer: The Fill composition appearance was “suspension”.

Question: What does the source list for `COc1ccccc1OCCNCC(O)COc1cccc2[nH]c3ccccc3c12` (centres unmarked) [Carvedilol]?
Answer: Fill composition appearance ([1]; 60% w/w SAE-CD): solution; Fill composition appearance ([1]; 70% w/w SAE-CD): clear solution

Question: For `COc1ccc2c(c1)c(CC(=O)O)c(C)n2C(=O)c1ccc(Cl)cc1` [Indomethacin], which Fill composition appearance ([1]; 60% w/w SAE-CD) is on record?
Answer: The Fill composition appearance was “solution”.

Question: What about the Fill composition appearance ([1]; 70% w/w SAE-CD) of the same molecule?
Answer: The Fill composition appearance was “clear solution”.

Question: For `C[C@]12CCC(=O)C=C1CC[C@@H]1[C@@H]2CC[C@@]2(C)[C@H]1CC[C@]2(C)O` [Methyltestosterone], which Fill composition appearance ([1]; 60% w/w SAE-CD) is on record?
Answer: Its Fill composition appearance is “clear solution”.

Question: What about the Fill composition appearance ([1]; 70% w/w SAE-CD) of the same molecule?
Answer: The Fill composition appearance was “clear solution”.
